Assay results taken from article PMC7464911, “Isolation of Antidiabetic Withanolides from Withania coagulans Dunal and Their In Vitro and In Silico Validation” (Biology, 2020).
“Also recorded” adds a separate entry of the source. Where two headings read alike, the source gives them in different places.

Legend:
α-glucosidase [1] = molecular target: T1, α-glucosidase (Saccharomyces cerevisiae, UniProt P53341); assay: biochemical
Experimental: (§1) α-Glucosidase inhibitory potential of test compounds was assayed by using 0.1 M phosphate buffer (pH 6.8) at 37 °C. The enzyme (0.2 U/mL) in phosphate buffer was incubated with selected concentrations of test compounds at 37 °C for 15 min. The substrate, p-nitrophenyl-α-D-glucopyranoside (PNP-G) (0.7 mM) was added in each well of 96-well plate and change in absorbance was monitored at 400 nm for 30 min. […] The increase in absorption due to the hydrolysis of PNP-G by α-glucosidase was recorded continuously with the spectrophotometer (Spectra Max, MD, USA.) and percent inhibition was calculated by using the following formula: % Inhibition = 100−⦋OD of test sample/OD of the control×100⦌
(§2) The experiments were performed by using 96-well microplate reader (SpectraMax M2, Molecular Devices, CA, USA) and the results were analyzed by SoftMaxPro 4.8 and MS-Excel. The experiments were repeated in triplicate, and results were presented as means ± SEM. IC50 values were determined by using EZ-FIT, Enzyme kinetics software by Perrella Scientific, Inc., Amherst, MA, USA.

[2] = system: AGE formation (bovine serum albumin, methylglyoxal); assay: In vitro antiglycation assay (BSA-methylglyoxal, AGE fluorescence); assay type: biochemical
Experimental: Methylglyoxal (14 mM), sodium azide (30 mM) in 0.1 M phosphate buffer, bovine serum albumin (10 mg/mL), and various concentrations of the compounds (prepared in 10% DMSO) were incubated under sterile conditions at 37 °C for 9 days. […] Standard rutin was used as a positive control and percent inhibition of AGE formation in the test sample versus control was calculated by using the following relation: % Inhibition = ⦋1−Fluorescence of test sample/Fluorescence of the control⦌×100

α-glucosidase [3] = molecular target: T1, α-glucosidase; conditions: for α-Glucosidase Inhibition IC50 (µM) ± (SEM): pH 6.8, 37 °C, PNP-G 0.7 mM, mean ± SEM, triplicate
Experimental: as §1, §2

[4] = system: Sprague-Dawley normoglycemic rat model; design: method as in PMID 24566854; conditions: cited from earlier work

T1 sequence (P53341 whole entry): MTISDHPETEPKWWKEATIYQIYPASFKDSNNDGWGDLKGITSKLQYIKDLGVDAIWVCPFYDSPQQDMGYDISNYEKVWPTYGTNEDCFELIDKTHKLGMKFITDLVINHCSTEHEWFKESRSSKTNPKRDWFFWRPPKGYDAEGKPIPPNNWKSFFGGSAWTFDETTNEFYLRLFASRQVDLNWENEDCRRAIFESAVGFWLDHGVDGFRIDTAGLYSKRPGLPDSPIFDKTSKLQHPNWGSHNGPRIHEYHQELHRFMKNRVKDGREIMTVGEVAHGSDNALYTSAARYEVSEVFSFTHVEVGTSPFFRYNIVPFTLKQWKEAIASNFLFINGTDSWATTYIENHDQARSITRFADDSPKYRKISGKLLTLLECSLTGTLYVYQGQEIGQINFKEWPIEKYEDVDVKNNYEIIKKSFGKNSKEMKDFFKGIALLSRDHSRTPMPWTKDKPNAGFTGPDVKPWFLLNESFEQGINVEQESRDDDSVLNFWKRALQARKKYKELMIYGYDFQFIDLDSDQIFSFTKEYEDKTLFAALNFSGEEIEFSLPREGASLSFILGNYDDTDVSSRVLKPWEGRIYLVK

Compound	IC50 (α-glucosidase [1])	Antiglycation IC50 (µM) ± (SEM) ([2]; 37 °C, 9 days, mean ± SEM)	α-glucosidase inhibitory activity (in words) (α-glucosidase [3])	α-Glucosidase Inhibition IC50 (µM) ± (SEM) (α-glucosidase [3])	also measured
CC1=C(C)C(=O)O[C@@H]([C@@](C)(O)[C@@]2(O)CC[C@@]3(O)[C@@H]4CCC5=CC=CC(=O)[C@]5(C)[C@H]4CC[C@]23C)C1 [Compound 4, withaperuvin C]	407 ± 4.5 µM	Inactive	–	–	–
CC1=C(CO)C(=O)O[C@@H]([C@@](C)(O)[C@H]2CC[C@@]3(O)[C@@H]4CC=C5C=CCC(=O)[C@]5(C)[C@H]4CC[C@]23C)C1 [Compound 5, 27-hydroxywithanolide I]	66.7 ± 3.6 µM	Inactive	–	–	–
CC1=C(CO)C(=O)O[C@@H]([C@@](C)(O)[C@@]2(O)CC[C@@]3(O)[C@@H]4CC=C5C=CCC(=O)[C@]5(C)[C@H]4CC[C@]23C)C1 [Compound 6, ajugin E]	–	–	did not possess α-glucosidase inhibitory activity	Inactive	Antiglycation IC50 (µM) ± (SEM) [2]: Inactive
CC1=C(C)C(=O)O[C@@H]([C@@](C)(O)[C@@]2(O)CC[C@@]3(O)[C@@H]4CC=C5CC=CC(=O)[C@]5(C)[C@H]4CC[C@]23C)C1 [Compound 2, withanolid J]	683 ± 0.94 µM	Inactive	–	–	–
17β-hydroxywithanolide K	–	–	–	–	anti-inflammatory activity [4]: potent; antihyperglycemic activity [4]: potent
CC1=C(C)C(=O)O[C@@H]([C@](C)(O)[C@]2(O)CC[C@@]3(O)[C@@H]4C[C@H]5O[C@]56[C@@H](O)C=CC(=O)[C@]6(C)[C@H]4CC[C@]23C)C1 [4β-hydroxywithanolide E]	–	–	–	–	anti-inflammatory activity [4]: potent; antihyperglycemic activity [4]: potent
C[C@@H]1O[C@@H](OC[C@H]2O[C@@H](Oc3c(-c4ccc(O)c(O)c4)oc4cc(O)cc(O)c4c3=O)[C@H](O)[C@@H](O)[C@@H]2O)[C@H](O)[C@H](O)[C@H]1O [Rutin, rutin, reference compound]	–	–	–	–	IC50 ([2]; 37 °C, 9 days, mean ± SEM): 288.9 ± 1.84 µM
CC1=C(C)C(=O)O[C@@H]([C@@]2(C)O[C@@]34CC[C@@H]2[C@@]3(C)CC[C@H]2[C@H]4CC=C3C=CCC(=O)[C@@]32C)C1 [Compound 3, coagulin E]	–	Inactive	did not possess α-glucosidase inhibitory activity	Inactive	–
CC1=C(COC2OC(CO)C(O)C(O)C2O)C(=O)OC(C2(C)OC34CCC2C3(C)CCC2C4CC=C3CC(O)CC(=O)C32C)C1 (stereo not drawn) [Compound 1, 3β-Hydroxy-14R,20R-epoxy-1-oxowitha-5,24-dienolide-27-O-β-D glucopyranoside]	–	–	did not possess α-glucosidase inhibitory activity; also recorded: inactive	Inactive	Antiglycation IC50 (µM) ± (SEM) [2]: Inactive
